Laboratory results taken from ChEMBL document CHEMBL1131575, “[125I/127I/131I]Iodorhodamine: synthesis, cellular localization, and biodistribution in athymic mice bearing human tumor xenografts and comparison with [99mTc]hexakis(2-methoxyisobutylisonitrile)” (J Med Chem, 1998).

Assays:
Mus musculus [1] = experiment: Biodistribution in athymic mice bearing Human Tumor (TE671) Xenografts 1 hour after injection in Lung (L); format: ADME, organism-based; conditions: in vivo
Mus musculus [2] = experiment: Ratio of biodistributions in Athymic mice bearing human Tumor (LS174T) xenografts in Heart (H) and Lung (L); format: ADME, organism-based; conditions: in vivo
[3] = (§1) Ratio of biodistributions in Athymic mice bearing human Tumor (TE671) xenografts in Tumor (T) and blood (B); format: ADME, organism-based; conditions: mouse, read-out: Biodistribution ratio
Mus musculus [4] = experiment: Biodistribution in athymic mice bearing Human Tumor (KB) Xenografts 1 hour after injection in Muscle (M); format: ADME, organism-based; conditions: in vivo
Mus musculus [5] = experiment: Ratio of biodistributions in Athymic mice bearing human Tumor (TE671) xenografts in Tumor (T) and Muscle (M); format: ADME, organism-based; conditions: in vivo
[6] = (§2) Ratio of biodistributions in Athymic mice bearing human Tumor (KB) xenografts in Tumor (T) and blood (B); format: ADME, organism-based; conditions: mouse, read-out: Biodistribution ratio
Homo sapiens [7] = experiment: Biodistribution in athymic mice bearing Human Tumor (KB) Xenografts 1 hour after injection in Tumor (T) cells; format: ADME, organism-based; conditions: in vivo
Mus musculus [8] = experiment: Ratio of biodistributions in Athymic mice bearing human Tumor (TE671) xenografts in Heart (H) and Lung (L); format: ADME, organism-based; conditions: in vivo
Mus musculus [9] = experiment: Biodistribution in athymic mice bearing Human Tumor (LS174T) Xenografts 1 hour after injection in Tumor (T) cells; format: ADME, organism-based; conditions: in vivo
Mus musculus [10] = experiment: Biodistribution in athymic mice bearing Human Tumor (KB) Xenografts 1 hour after injection in Lung (L); format: ADME, organism-based; conditions: in vivo
Mus musculus [11] = experiment: Biodistribution in athymic mice bearing Human Tumor (KB) Xenografts 1 hour after injection in Blood (B); format: ADME, organism-based; conditions: in vivo
Homo sapiens [12] = experiment: Biodistribution in athymic mice bearing Human Tumor (TE671) Xenografts 1 hour after injection in Tumor (T) cells; format: ADME, organism-based; conditions: in vivo
Mus musculus [13] = experiment: Biodistribution in athymic mice bearing Human Tumor (KB) Xenografts 1 hour after injection in Heart (H); format: ADME, organism-based; conditions: in vivo
Mus musculus [14] = experiment: Biodistribution in athymic mice bearing Human Tumor (LS174T) Xenografts 1 hour after injection in Blood (B); format: ADME, organism-based; conditions: in vivo
[15] = (§3) Ratio of biodistributions in Athymic mice bearing human Tumor (LS174T) xenografts in Heart (H) and Blood (B); format: ADME, organism-based; conditions: mouse, read-out: Biodistribution ratio
Mus musculus [16] = experiment: Biodistribution in athymic mice bearing Human Tumor (LS174T) Xenografts 1 hour after injection in Muscle (M); format: ADME, organism-based; conditions: in vivo
Mus musculus [17] = experiment: Ratio of biodistributions in Athymic mice bearing human Tumor (LS174T) xenografts in Tumor (T) and Muscle (M); format: ADME, organism-based; conditions: in vivo
[18] = (§4) Ratio of biodistributions in Athymic mice bearing human Tumor (KB) xenografts in Heart (H) and Blood (B); format: ADME, organism-based; conditions: mouse, read-out: Biodistribution ratio
Mus musculus [19] = experiment: Biodistribution in athymic mice bearing Human Tumor (TE671) Xenografts 1 hour after injection in Blood (B); format: ADME, organism-based; conditions: in vivo
Mus musculus [20] = experiment: Biodistribution in athymic mice bearing Human Tumor (LS174T) Xenografts 1 hour after injection in Lung (L); format: ADME, organism-based; conditions: in vivo
[21] = (§5) Ratio of biodistributions in Athymic mice bearing human Tumor (LS174T) xenografts in Tumor (T) and blood (B); format: ADME, organism-based; conditions: mouse, read-out: Biodistribution ratio
Mus musculus [22] = experiment: Biodistribution in athymic mice bearing Human Tumor (TE671) Xenografts 1 hour after injection in Muscle (M); format: ADME, organism-based; conditions: in vivo
Mus musculus [23] = experiment: Biodistribution in athymic mice bearing Human Tumor (LS174T) Xenografts 1 hour after injection in Heart (H); format: ADME, organism-based; conditions: in vivo
[24] = (§6) Ratio of biodistributions in Athymic mice bearing human Tumor (TE671) xenografts in Heart (H) and Blood (B); format: ADME, organism-based; conditions: mouse, read-out: Biodistribution ratio
Mus musculus [25] = experiment: Ratio of biodistributions in Athymic mice bearing human Tumor (KB) xenografts in Heart (H) and Lung (L); format: ADME, organism-based; conditions: in vivo
Mus musculus [26] = experiment: Biodistribution in athymic mice bearing Human Tumor (TE671) Xenografts 1 hour after injection in Heart (H); format: ADME, organism-based; conditions: in vivo
Mus musculus [27] = experiment: Ratio of biodistributions in Athymic mice bearing human Tumor (KB) xenografts in Tumor (T) and Muscle (M); format: ADME, organism-based; conditions: in vivo
Mus musculus [28] = experiment: as §2; format: ADME, organism-based
Mus musculus [29] = experiment: as §5; format: ADME, organism-based, Blood/Heart
Mus musculus [30] = experiment: as §3; format: ADME, organism-based
Mus musculus [31] = experiment: as §4; format: ADME, organism-based
Mus musculus [32] = experiment: as §1; format: ADME, organism-based, Blood/Heart
Mus musculus [33] = experiment: as §6; format: ADME, organism-based

For `COC(=O)c1ccccc1-c1c2ccc(=N)cc-2oc2cc(N)ccc12.[125IH]`, the Dose/g (Mus musculus [1]) was 0.91%, the Biodistribution ratio (Mus musculus [2]) was 0.7 and the Kp [3] was 0.63. It also gave a Dose/g (Mus musculus [4]) of 1.44%, a Biodistribution ratio (Mus musculus [5]) of 3.1 and a Kp [6] of 0.36. For the same compound, the Dose/g (Homo sapiens [7]) was 1.67%, the Biodistribution ratio (Mus musculus [8]) was 0.7 and the Dose/g (Mus musculus [9]) was 0.59%. The Dose/g (Mus musculus [10]) was 3.23%, the Dose/g (Mus musculus [11]) was 4.6% and the Dose/g (Homo sapiens [12]) was 1.1%. It also gave a Dose/g (Mus musculus [13]) of 2.56%, a Dose/g (Mus musculus [14]) of 1.74% and a Kp [15] of 0.5. For the same compound, the Dose/g (Mus musculus [16]) was 0.36%, the Biodistribution ratio (Mus musculus [17]) was 1.6 and the Kp [18] was 0.6. For the same compound, the Dose/g (Mus musculus [19]) was 1.74%, the Dose/g (Mus musculus [20]) was 0.91% and the Kp [21] was 0.34. The Dose/g (Mus musculus [22]) was 0.36%, the Dose/g (Mus musculus [23]) was 0.6% and the Kp [24] was 0.5. For the same compound, the Biodistribution ratio (Mus musculus [25]) was 0.8, the Dose/g (Mus musculus [26]) was 0.6% and the Biodistribution ratio (Mus musculus [27]) was 1.2.

With “Hexakis-(2-methoxyisobutylisonitrile)Technetium (99mTc-MIBI)” the Dose/g (Mus musculus [1]) was 0.5%, the Biodistribution ratio (Mus musculus [2]) was 12 and the Dose/g (Mus musculus [4]) was 2.74%. It also gave a Biodistribution ratio (Mus musculus [5]) of 0.9, a Biodistribution ratio (Mus musculus [28]) of 3.8 and a Dose/g (Homo sapiens [7]) of 0.65%. The Biodistribution ratio (Mus musculus [29]) was 4, the Biodistribution ratio (Mus musculus [8]) was 12 and the Dose/g (Mus musculus [9]) was 0.52%. The Dose/g (Mus musculus [10]) was 1.82%, the Dose/g (Mus musculus [11]) was 0.17% and the Dose/g (Homo sapiens [12]) was 1.1%. The Dose/g (Mus musculus [13]) was 8.13%, the Dose/g (Mus musculus [14]) was 0.13% and the Biodistribution ratio (Mus musculus [30]) was 46. For the same compound, the Dose/g (Mus musculus [16]) was 1.22%, the Biodistribution ratio (Mus musculus [17]) was 0.43 and the Biodistribution ratio (Mus musculus [31]) was 48. The Dose/g (Mus musculus [19]) was 0.13%, the Biodistribution ratio (Mus musculus [32]) was 8.5 and the Dose/g (Mus musculus [20]) was 0.5%. It also gave a Dose/g (Mus musculus [22]) of 1.22%, a Dose/g (Mus musculus [23]) of 6% and a Biodistribution ratio (Mus musculus [33]) of 46. For the same compound, the Biodistribution ratio (Mus musculus [25]) was 4.5, the Dose/g (Mus musculus [26]) was 6% and the Biodistribution ratio (Mus musculus [27]) was 0.24.
